The source of these data is patent publication US6541630B1 (priority 1997, dated 2003).

Take `Cc1cc2ncn(C)c(=O)c2s1`: the melting point lay in the range of 188 to 190 °C. `Nn1cnc2c(Br)csc2c1=O` [Compound 6d, 3-Amino-7-bromo-3,4-dihydrothieno[3,2-d]pyrimidin-4-one] came in with a melting point of 181 to 183 °C. Regarding `CC(=O)Nn1cnc2c(Br)csc2c1=O`, the melting point was found to be 273 °C. The figure for `Cc1sc2c(=O)[nH]cnc2c1Br` is 320 to 322 °C; for `O=c1[nH]cnc2cc(Br)sc12` [Compound 8a, 6-Bromo-3,4-dihydrothieno[3,2-d]pyrimidin-4-one] it is 238 to 240 °C; for `CC(=O)On1cnc2c(Br)csc2c1=O` it is 159 to 162 °C. For the molecule `O=c1[nH]cnc2sc(Br)cc12` [Compound 6g, 6-Bromo-3,4-dihydrothieno[2,3-d]pyrimidine-4-one], the melting point fell in the range of 301 to 304 °C.
